Data on 12 molecules can be found in patent publication US8188102B2, “Amide derivative for inhibiting the growth of cancer cells” (Hanmi Holdings Co., Ltd., priority 2007, dated 2012).

Molecules are shown by their SMILES. Read-outs that look alike come from different tables or passages of the source.

For one assay, the target named is T1, EGFR (Homo sapiens, UniProt P00533).
T1 construct: A skin cancer cell line, A431 (ATCC: CRL-1555), was used; endogenous in cells; host or cells: A431 (ATCC: CRL-1555)
Briefly: Prolongation study in A431 cells (EGFR phosphorylation inhibition). The class given is cell-based. Conditions: A-431, 1 μM for 4 hrs, then washed, EGF 100 ng/ml. As for the experimental part: A skin cancer cell line, A431 (ATCC: CRL-1555), was used to test the degrees of the inventive compounds in inhibiting EGFR's phosphorylation and the prolongation of ability to inhibit it thereof.
The cell line was incubated in a culture flask at 37° C. under 95% air and 5% CO2 using a culture medium containing DMEM, 10% FBS and 1% PS. When more than 90% of the total volume of the culture flask became filled with cells, the cultured cell solution was subject to secondary incubation and was poured to each well of a 6-well plate to the extent of 500,000 cells/well. After 24 hrs, the cells were separated from the solution, washed with PBS, and incubated in a culture medium containing DMEM, 0.1% FBS and 1% PS for 16 hrs. The compounds obtained in Examples 1, 17, 19 and 36, and Tarceva as EGFR phosphorylation inhibitors were each added to the cell-containing well to a concentration of 1 μM. After 4 hrs, the cells were separated from the solution, washed 4 times with PBS after every 0, 2, 4 and 8 hrs, and incubated in a culture medium containing DMEM, 0.1% FBS and 1% PS. […] Just before the completion of the reaction, the cultured cell solution was treated with a 100 ng/ml concentration of EGF (Sigma, Cat No. E9644) for 5 mins to induce the activation of EGFR. After the completion of the reaction, the well plate holding the cultured cells was stored at −70° C. In control groups, the replacement of the medium was performed instead of the addition of the EGFR phosphorylation inhibitor, wherein the induction of EGFR activation using EGF was made only in a positive control group and not made in a negative control group.
For Western blot and enzyme immune measuring (ELISA) methods, the well plate stored at −70° C. was allowed to melt to room temperature, and then protein was extracted from the cells in the well plate using a protein extract buffer. The extraction of the protein was performed as follows: 250 μl of the protein extract buffer (Phosphosafe extraction reagent, Calbiochem, Cat No. 71296-3) comprising protease inhibitor cocktail was added to each cell-containing well, which was stirred at room temperature for 5 mins. The cells were collected using a cell scraper and put in an 1.5 ml tube, which was centrifuged at a speed of 16,000×g for 5 mins. The upper layer thus obtained was separated, of which the protein content was determined by a protein assay kit (Bio-rad, Cat No. 500-0116). The protein extracted was diluted with PBS to a concentration of 0.8 mg/ml.
A human EGFR (py1173) immunoassay kit (Biosource, Cat No. KHR9071) was used in the enzyme immune measuring method. 100 μl of the sample which was diluted by 4 folds with a standard dilution buffer in a kit was added to a strip well, which was incubated at a 4° C. refrigerator overnight. The cultured cells was separated therefrom and washed 4 times with 200 μl of a washing buffer. 100 μl of the resulting primary antibody (anti-human EGFR [pY1173]) was put to each strip well, incubated at 37° C. for 1 hr, and washed 4 times with 200 μl of a washing buffer. The resulting secondary antibody (anti-rabbit IgG-HRP) was diluted by 100 folds with an HRP dilution buffer in a kit. 100 μl of the dilute was put to each strip well, incubated at 37° C. for 30 mins, and washed 4 times with 200 μl of the washing buffer. 100 μl of an HRP substrate in a kit was put to each strip well and incubated in a darkroom for 10 to 30 mins. 100 μl of a reaction stop solution was added thereto to terminate the reaction, and then, the absorbance at 450 nm was observed.
Electrophoresis and Western blot methods were conducted based on the conventional methods in the following: An LDS buffer was added to each sample, which was allowed to boil at 70° C. for 10 mins. 10 μl of the resulting solution was loaded to a 12-well gel (Nupage 4˜12% Bis-tris gel, Invitrogen), followed by 120 volt-electrophoresis in a buffer (MOPS electrophoresis buffer, Invitrogen, Cat No. NP0006-1) for 2 hrs. […]

In assay [1] the test system is A431 skin cancer cell line. Briefly: Cancer cell growth inhibition, A431 (SRB). Conditions: Homo sapiens, A-431, 72 h, read-out: ID50 (nM) A431.
For assay [2], the system named is SK-Br3 breast cancer cell line. Briefly: Cancer cell growth inhibition, SK-Br3 (SRB). Conditions: Homo sapiens, SK-BR-3, 72 h, read-out: ID50 (nM) SK-Br3.
The test system of assay [3] is SW-620 colon/rectal cancer cell line. Briefly: Cancer cell growth inhibition, SW-620 (SRB). Conditions: Homo sapiens, SW-620, 72 h, read-out: IC50 (nM) SW-620.
The subject of assay [4] is H1975 lung cancer cell line. The assay is described as follows: Cancer cell growth inhibition, H1975 (celltiter). Conditions: Homo sapiens, NCI-H1975, 48 h, read-out: IC50 (nM) H1975.
Protocol: The medium was removed from each well of the 96-well plate.
In case of H1975, the cells were diluted with a culture medium to a concentration of 50,000 cells/ml. 100 μl of the diluted cell solution was added to each well of a 96-well plate, and, after 1 day, was washed with a mixture of RPMI, 0.1% FBS and 1% penicillin-streptomycin (PS), followed by replacement of the medium. The plate was allowed to be kept overnight and be treated to various concentrations under the same medium condition for 48 hrs. Similarly to an MTT assay, 15 μl of a celltiter one shot solution (Promega) was added to each well, which was incubated for 2 to 3 hrs, and, then, the absorbance at 490 nm was determined.
In a further assay the target is EGFR T790M kinase (Homo sapiens, UniProt P00533, T790M). The assay is described as follows: Inhibition of EGFR mutant enzyme (T790M).
Assay [5] has as its target EGFR (EGFR type 1 kinase, Upstate) (Homo sapiens, UniProt P00533). The assay is described as follows: Inhibition of EGFR enzyme (fluorescence polarization kinase assay).
Protocol: 10 μl of an EGFR (EGFR type 1 kinase, Upstate, 10 ng/μl) was added to each well of a 96-well plate. […] The calculation and analysis of IC50 were carried out by using Microsoft Excel.
Setting [6] is: 0 hr after washing, read-out: EGFR phosphorylation inhibition in A431 cell line (%) 0 hr Avg.
Setting [7] is: 8 hrs after washing, read-out: EGFR phosphorylation inhibition in A431 cell line (%) 8 hrs Avg.
Where [8] appears, read: 24 hrs after washing, read-out: EGFR phosphorylation inhibition in A431 cell line (%) 24 hrs Avg.
Setting [9] is: 48 hrs after washing, read-out: EGFR phosphorylation inhibition in A431 cell line (%) 48 hrs Avg.
Where [10] appears, read: read-out: IC50 (nM) T790M, EGFR T790M kinase.
The mark [11] stands for this setting: read-out: IC50 (nM) EGFR, EGFR type 1 kinase, ATP 50 μM.

EGFR T790M kinase, sequence (P00533 25-1210 T790M): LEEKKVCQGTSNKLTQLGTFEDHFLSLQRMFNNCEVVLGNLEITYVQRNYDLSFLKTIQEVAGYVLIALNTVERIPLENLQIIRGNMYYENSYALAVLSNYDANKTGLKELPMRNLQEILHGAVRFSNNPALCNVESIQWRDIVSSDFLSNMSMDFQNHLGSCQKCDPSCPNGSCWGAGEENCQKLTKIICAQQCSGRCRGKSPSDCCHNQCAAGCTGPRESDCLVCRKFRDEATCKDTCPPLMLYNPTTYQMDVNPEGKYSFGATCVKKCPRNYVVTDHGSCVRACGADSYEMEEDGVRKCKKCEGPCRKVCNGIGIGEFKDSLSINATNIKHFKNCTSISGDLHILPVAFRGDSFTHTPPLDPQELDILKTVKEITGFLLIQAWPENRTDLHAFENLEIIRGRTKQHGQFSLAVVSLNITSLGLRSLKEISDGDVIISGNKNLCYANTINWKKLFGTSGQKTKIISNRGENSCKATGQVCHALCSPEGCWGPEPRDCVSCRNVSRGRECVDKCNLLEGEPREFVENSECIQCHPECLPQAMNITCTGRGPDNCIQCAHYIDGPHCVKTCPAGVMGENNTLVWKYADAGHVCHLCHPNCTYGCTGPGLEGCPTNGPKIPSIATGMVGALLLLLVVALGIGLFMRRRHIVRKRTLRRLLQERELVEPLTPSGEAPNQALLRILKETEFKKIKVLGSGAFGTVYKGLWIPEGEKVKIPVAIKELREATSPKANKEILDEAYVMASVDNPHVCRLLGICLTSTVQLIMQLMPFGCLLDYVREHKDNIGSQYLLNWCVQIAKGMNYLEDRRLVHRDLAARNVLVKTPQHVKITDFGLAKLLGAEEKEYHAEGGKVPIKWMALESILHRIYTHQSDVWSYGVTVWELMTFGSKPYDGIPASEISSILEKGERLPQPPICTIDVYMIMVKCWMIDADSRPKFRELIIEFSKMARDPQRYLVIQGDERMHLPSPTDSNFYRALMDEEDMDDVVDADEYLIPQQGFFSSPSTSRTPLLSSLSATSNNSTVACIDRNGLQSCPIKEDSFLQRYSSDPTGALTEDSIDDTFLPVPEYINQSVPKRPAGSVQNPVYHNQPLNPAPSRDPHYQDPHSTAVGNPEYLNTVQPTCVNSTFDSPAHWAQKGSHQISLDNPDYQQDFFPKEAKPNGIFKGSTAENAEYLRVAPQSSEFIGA
EGFR (EGFR type 1 kinase, Upstate), sequence (P00533 25-1210): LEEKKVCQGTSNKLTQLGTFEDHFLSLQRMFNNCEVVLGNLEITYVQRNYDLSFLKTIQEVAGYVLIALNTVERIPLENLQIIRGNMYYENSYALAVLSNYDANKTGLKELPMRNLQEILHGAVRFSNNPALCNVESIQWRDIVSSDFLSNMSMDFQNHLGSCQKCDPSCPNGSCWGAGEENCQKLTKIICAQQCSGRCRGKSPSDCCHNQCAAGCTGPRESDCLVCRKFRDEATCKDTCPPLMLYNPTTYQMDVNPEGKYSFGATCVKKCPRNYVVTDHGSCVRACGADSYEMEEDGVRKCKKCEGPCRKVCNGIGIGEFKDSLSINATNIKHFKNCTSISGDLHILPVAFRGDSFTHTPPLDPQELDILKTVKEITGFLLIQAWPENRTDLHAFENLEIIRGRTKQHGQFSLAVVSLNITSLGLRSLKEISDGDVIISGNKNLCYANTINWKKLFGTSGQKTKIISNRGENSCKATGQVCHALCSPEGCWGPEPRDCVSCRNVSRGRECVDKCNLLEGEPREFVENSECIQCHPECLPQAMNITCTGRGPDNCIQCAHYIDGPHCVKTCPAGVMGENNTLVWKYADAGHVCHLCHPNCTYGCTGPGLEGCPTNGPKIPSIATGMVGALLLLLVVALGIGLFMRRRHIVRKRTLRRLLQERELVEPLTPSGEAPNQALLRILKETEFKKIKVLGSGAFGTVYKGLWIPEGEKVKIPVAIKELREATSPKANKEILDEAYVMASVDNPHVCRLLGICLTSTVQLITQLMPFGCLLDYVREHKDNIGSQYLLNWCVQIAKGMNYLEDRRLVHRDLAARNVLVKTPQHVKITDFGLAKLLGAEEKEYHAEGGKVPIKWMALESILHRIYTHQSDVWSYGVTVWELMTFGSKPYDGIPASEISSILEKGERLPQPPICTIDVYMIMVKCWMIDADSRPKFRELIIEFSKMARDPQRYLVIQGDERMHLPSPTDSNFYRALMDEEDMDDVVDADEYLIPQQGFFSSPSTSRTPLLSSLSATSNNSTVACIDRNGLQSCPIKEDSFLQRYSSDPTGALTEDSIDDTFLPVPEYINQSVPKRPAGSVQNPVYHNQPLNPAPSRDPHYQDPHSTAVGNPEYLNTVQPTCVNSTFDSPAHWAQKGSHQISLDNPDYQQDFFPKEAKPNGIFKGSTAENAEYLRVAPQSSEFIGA
T1 sequence (P00533 25-1210): as above

Take `C=CC(=O)N1CC[C@H](Oc2cc3c(Nc4ccc(F)c(Cl)c4F)ncnc3cc2OC)C1` [Example 1, 1-((3S)-3-(4-(3-chloro-2,4-difluorophenylamino)-7-methoxyquinazolin-6-yloxy)pyrrolidin-1-yl)prop-2-en-1-one]: the inhibition (as a rule, the share of the control response that was lost under treatment) at 1 µM at EGFR (setting [6]) came out at 71%; on EGFR (setting [7]) it was 71%; on EGFR (setting [8]), 73%; at EGFR (setting [9]), 42%. Besides, the IC50 in assay [1] is 4 nM; in assay [2], 8 nM; in assay [3] it was > 5000 nM; in assay [4] it was 80 nM.
Take `C=CC(=O)N1CC[C@H](Oc2cc3c(Nc4ccc(Br)c(Cl)c4F)ncnc3cc2OC)C1` [Example 7, 1-((3S)-3-(4-(4-bromo-3-chloro-2-fluorophenylamino)-7-methoxyquinazolin-6-yloxy)pyrrolidin-1-yl)pro-2-pen-1-one]: the IC50 on EGFR T790M kinase (setting [10]) was 8 nM; in assay [1] it was 5 nM; in assay [2], 8 nM; in assay [3], > 5000 nM; in assay [4], 55 nM; in assay [5] (setting [11]), 10 nM.
As for `C=CC(=O)N1CC[C@H](Oc2cc3c(Nc4ccc(OCc5ccccn5)c(Cl)c4)ncnc3cc2OC)C1` [Example 10, 1-((3S)-3-(4-(3-chloro-4-(pyridin-2-ylmethoxy)phenylamino)-7-methoxyquinazolin-6-yloxy)pyrrolidin-1-yl)pro-2-pen-1-one], the IC50 on EGFR T790M kinase (setting [10]) was 10 nM; in assay [1], 14 nM; in assay [2] it was 7 nM; in assay [3] it was > 5000 nM; in assay [5] (setting [11]), 5 nM.
`C=CC(=O)N1CC[C@H](Oc2cc3c(N[C@H](C)c4ccccc4)ncnc3cc2OC)C1` [Example 11]: the IC50 was determined as 27 nM on EGFR T790M kinase (setting [10]); 8 nM in assay [1]; 13 nM in assay [2]; 167 nM in assay [4]; 12 nM in assay [5] (setting [11]).
As to `C=CC(=O)N1CC[C@H](Oc2ccc3ncnc(Nc4ccc(F)c(Cl)c4F)c3c2)C1` [Example 15, 1-((3S)-3-(4-(3-chloro-2,4-difluorophenylamino)quinazolin-6-yloxy)pyrrolidin-1-yl)pro-2-pen-1-one], the IC50 stood at 54 nM at EGFR T790M kinase (setting [10]); 5 nM in assay [1]; 25 nM in assay [2]; 413 nM in assay [4]; 9 nM in assay [5] (setting [11]).
For the molecule `C=CC(=O)N1CC[C@H](Oc2ccc3ncnc(Nc4ccc(OCc5cccc(F)c5)c(Cl)c4)c3c2)C1` [Example 16, 1-((3S)-3-(4-(3-chloro-4-(3-fluorobenzyloxy)phenylamino)quinazolin-6-yloxy)pyrrolidin-1-yl)pro-2-pen-1-one], the IC50 at EGFR T790M kinase (setting [10]) was 47 nM; in assay [1], 15 nM; in assay [2] it was 7 nM; in assay [3], > 5000 nM; in assay [5] (setting [11]), 8 nM.
As to `C=CC(=O)N1CC(Oc2cc3c(N[C@H](C)c4ccccc4)ncnc3cc2OC)C1` [Example 22, (R)-1-(3-(7-methoxy-4-(1-phenylethylamino)quinazolin-6-yloxy)azetidin-1-yl)pro-2-pen-1-one], the IC50 came out at 15 nM on EGFR T790M kinase (setting [10]); 7 nM in assay [1]; 1 nM in assay [2]; 156 nM in assay [4]; 6 nM in assay [5] (setting [11]).
As for `C=CC(=O)N1CC(Oc2cc3c(Nc4cccc(Cl)c4F)ncnc3cc2OC)C1` [Example 23, 1-(3-(4-(3-chloro-2-fluorophenylamino)-7-methoxyquinazolin-6-yloxy)azetidin-1-yl)pro-2-pen-1-one], the IC50 was 4 nM on EGFR T790M kinase (setting [10]); 1.6 nM in assay [1]; 0.5 nM in assay [2]; > 5000 nM in assay [3]; 9 nM in assay [4]; 6 nM in assay [5] (setting [11]).
In the case of `C=CC(=O)N1CC(Oc2cc3c(Nc4cccc(Cl)c4)ncnc3cc2OC)C1` [Example 26, 1-(3-(4-(3-chlorophenylamino)-7-methoxyquinazolin-6-yloxy)azetidin-1-yl)pro-2-pen-1-one], the IC50 was 3.3 nM at EGFR T790M kinase (setting [10]); 1.6 nM in assay [1]; 6 nM in assay [2]; > 5000 nM in assay [3]; 17.7 nM in assay [4]; 1.6 nM in assay [5] (setting [11]).
`C=CC(=O)N1CCC(Oc2cc3c(Nc4cccc(Cl)c4F)ncnc3cc2OC)CC1` [Example 34, 1-(4-(4-(3-chloro-2-fluorophenylamino)-7-methoxyquinazolin-6-yloxy)piperidin-1-yl)pro-2-pen-1-one]: the IC50 at EGFR T790M kinase (setting [10]) was 5 nM; in assay [1], 2 nM; in assay [2] it was 0.2 nM; in assay [3] it was > 5000 nM; in assay [4], 22 nM; in assay [5] (setting [11]), 6 nM.
As for `C=CC(=O)N1CCC(Oc2cc3c(Nc4ccc(Cl)c(Cl)c4F)ncnc3cc2OC)CC1` [Example 36, 1-(4-(4-(3,4-dichloro-2-fluorophenylamino)-7-methoxyquinazolin-6-yloxy)piperidin-1-yl)pro-2-pen-1-one], the inhibition at 1 µM at EGFR (setting [6]) stood at 90%; on EGFR (setting [7]) it was 89%; on EGFR (setting [8]) it was 81%; at EGFR (setting [9]), 41%; at EGFR (72 hrs after washing, read-out: EGFR phosphorylation inhibition in A431 cell line (%) 72 hrs Avg.), 44%. In addition, the IC50 in assay [2] was 0.3 nM; in assay [3], > 5000 nM.
For `C=CC(=O)N1CCC(Oc2ccc3ncnc(Nc4ccc(F)c(Cl)c4F)c3c2)CC1` [Example 71, 1-(4-(4-(3-chloro-2,4-difluorophenylamino)quinazolin-6-yloxy)piperidin-1-yl)pro-2-pen-1-one], the IC50 at EGFR T790M kinase was 24 nM; in assay [1], 8 nM; in assay [2], 5 nM; in assay [4], 70 nM; in assay [5] it was 2.7 nM.
